{"source": "patent US9353082B2", "about": "“Pharmaceutical compounds” (BIAL—PORTELA & CA, S.A., priority 2008, dated 2016)"}
{"target": "T1, FAAH (Rattus norvegicus, UniProt P97612)", "T1 construct": "Frozen brains (without cerebellum) from Wistar rats were used; from tissue; host or cells: Wistar rat brain (without cerebellum), washed membrane pellets", "T1 sequence (P97612 1-579)": "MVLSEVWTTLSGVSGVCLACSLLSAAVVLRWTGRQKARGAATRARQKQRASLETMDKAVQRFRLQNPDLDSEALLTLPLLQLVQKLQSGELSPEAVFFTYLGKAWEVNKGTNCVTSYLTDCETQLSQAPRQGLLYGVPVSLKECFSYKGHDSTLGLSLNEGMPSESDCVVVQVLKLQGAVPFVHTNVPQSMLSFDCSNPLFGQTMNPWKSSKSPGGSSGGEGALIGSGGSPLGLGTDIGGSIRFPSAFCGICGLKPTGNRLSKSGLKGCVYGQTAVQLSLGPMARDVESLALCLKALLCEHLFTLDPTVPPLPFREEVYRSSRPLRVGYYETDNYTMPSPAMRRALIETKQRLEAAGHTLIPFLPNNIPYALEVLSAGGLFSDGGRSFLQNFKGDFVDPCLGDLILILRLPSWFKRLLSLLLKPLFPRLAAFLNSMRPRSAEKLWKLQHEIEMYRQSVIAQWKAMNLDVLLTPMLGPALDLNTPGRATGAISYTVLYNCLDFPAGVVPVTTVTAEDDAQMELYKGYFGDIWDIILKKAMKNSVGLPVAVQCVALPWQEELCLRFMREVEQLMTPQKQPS", "assay": "In vitro FAAH activity in rat brain membranes, 3H-AEA substrate, % of control", "format": "biochemical, Wistar rats", "details": "100 nM test compound, low value = strong inhibitor", "procedure": "3. Biological Efficacy of Compounds of the Invention The in vitro test was performed according to the protocol described below. The controls for both in vitro and in vivo were the reaction mix minus the test compounds. Therefore, a low value in Table 1 below for the test compounds indicates a strong inhibitor.\nThe in vitro pharmaceutical FAAH activity was determined according to the following method:\nFrozen brains (without cerebellum) from Wistar rats were used, and each brain was homogenized in 15 ml 1 mM MgCL2, […] HEPES pH 7.0 with Potter Elvejhem (8 strokes at 500 rpm). Homogenates were centrifuged for 20 min at 36000 g at 4° C. (Beckman, 70Ti rotor). Pellets were resuspended in 15 ml of the same buffer and centrifuged under the same conditions. Pellets were resuspended in 15 ml of the same buffer and incubated for 15 min at 37° C. after which they were centrifuged for 20 min at 36000 g at 4° C. Each pellet was then resuspended in 15 ml 3 mM MgCl2, 1 mM EDTA, 50 mM Tris pH 7.4 and protein determined with BioRad Protein Assay (BioRad) using a standard curve of BSA (50-250 μg/ml). The membrane suspensions were aliquoted and stored at −80° C.\nThe FAAH activity was determined using AEA (labelled with 3H in the ethanolamine part of the molecule) as substrate and measuring the 3H-ethanolamine formed. Reaction mix (total volume of 200 up contained: 2 μM AEA (2 μM AEA+5 nM 3H-AEA), 0.1% fatty acid free BSA, 5 μg protein, in 1 mM EDTA, 10 mM Tris pH 7.6 and 10 μM or 0.1 μM compounds. Stock solutions of the compounds to test (10 mM) were prepared in 100% DMSO and the DMSO concentration in the assay was 0.1%. After a 15 min preincubation period at 37° C., reaction was started by the addition of the substrate solution ([…]). Reaction was carried out for 10 min before termination by the addition of 400 μl activated charcoal suspension (8 g charcoal in 32 ml 0.5 M HCl in continuous agitation). After a 30 min incubation period at room temperature with agitation, charcoal was sedimented by centrifugation in microfuge (10 min at 13000 rpm). 200 μl of the supernatant were added to 800 μl Optiphase Supermix scintillation cocktail previously distributed in 24-well plates. Counts per minute (cpm) were determined in Microbeta TriLux scintillation counter (10 min counting or until s=2).\nIn each assay blanks (no protein, usually below 200 cpm) and controls (no compound) were present. The results are reported in Table 1 as % of control after blank subtraction."}
{"smiles": "O=C(N1CCOCC1)n1ccc2cc(F)ccc21", "note": "[Compound 46, (5-fluoro-1H-indol-1-yl)(morpholino)methanone]", "In Vitro FAAH activity, 100 nM": "104.3 % of control"}
{"smiles": "COc1ccc2c(ccn2C(=O)N2CCOCC2)c1", "note": "[Compound 47, (5-methoxy-1H-indol-1-yl)(morpholino)methanone]", "In Vitro FAAH activity, 100 nM": "97.2 % of control"}
{"smiles": "O=C(N1CCOCC1)n1ccc2cc(O)ccc21", "note": "[Compound 52, (5-hydroxy-1H-indol-1-yl)(morpholino)methanone]", "In Vitro FAAH activity, 100 nM": "102.7 % of control"}
{"smiles": "CN(C(=O)n1cnc(-c2ccc(O)cc2)c1)c1ccc(F)cc1", "note": "[Compound 54, N-(4-fluorophenyl)-4-(4-hydroxyphenyl)-N-methyl-1H-imidazole-1-carboxamide]", "In Vitro FAAH activity, 100 nM": "91 % of control"}
{"smiles": "O=C(Nc1ccc(Oc2ccccc2)cc1)n1nnc2ccccc21", "note": "[Compound 56, N-(4-phenoxyphenyl)-1H-benzo[d][1,2,3]triazole-1-carboxamide]", "In Vitro FAAH activity, 100 nM": "90.7 % of control"}
{"smiles": "COc1ccc(NC(=O)n2nnc3ccccc32)cc1", "note": "[Compound 57, N-(4-methoxyphenyl)-1H-benzo[d][1,2,3]triazole-1-carboxamide]", "In Vitro FAAH activity, 100 nM": "96.9 % of control"}
{"smiles": "O=C(Nc1ccc(F)cc1F)n1nnc2ccccc21", "note": "[Compound 59, N-(2,4-difluorophenyl)-1H-benzo[d][1,2,3]triazole-1-carboxamide]", "In Vitro FAAH activity, 100 nM": "100.4 % of control"}
{"smiles": "O=C(Nc1ccccc1)n1nnc2ccccc21", "note": "[Compound 60, N-phenyl-1H-benzo[d][1,2,3]triazole-1-carboxamide]", "In Vitro FAAH activity, 100 nM": "93.8 % of control"}
{"smiles": "O=C(Nc1ccc(Cl)cc1)n1nnc2ccccc21", "note": "[Compound 62, N-(4-chlorophenyl)-1H-benzo[d][1,2,3]triazole-1-carboxamide]", "In Vitro FAAH activity, 100 nM": "93.7 % of control"}
{"smiles": "COc1ccc(-c2ncn(C(=O)N(C)c3ccccc3)n2)cc1", "note": "[Compound 64, 3-(4-methoxyphenyl)-N-methyl-N-phenyl-1H-1,2,4-triazole-1-carboxamide]", "In Vitro FAAH activity, 100 nM": "67.9 % of control"}
{"smiles": "COc1ccc(-c2ncn(C(=O)N3CCOCC3)n2)cc1", "note": "[Compound 65, (3-(4-methoxyphenyl)-1H-1,2,4-triazol-1-yl)(morpholino)methanone]", "In Vitro FAAH activity, 100 nM": "86.5 % of control"}
{"smiles": "COc1ccc(-c2ncn(C(=O)N(C)c3ccc(F)cc3)n2)cc1", "note": "[Compound 66, N-(4-fluorophenyl)-3-(4-methoxyphenyl)-N-methyl-1H-1,2,4-triazole-1-carboxamide]", "In Vitro FAAH activity, 100 nM": "80.9 % of control"}
{"smiles": "CN(C(=O)n1cnc(-c2ccc(Cl)cc2)n1)c1ccccc1", "note": "[Compound 67, 3-(4-chlorophenyl)-N-methyl-N-phenyl-1H-1,2,4-triazole-1-carboxamide]", "In Vitro FAAH activity, 100 nM": "61 % of control"}
{"smiles": "O=C(N1CCOCC1)n1cnc(-c2ccc(Cl)cc2)n1", "note": "[Compound 68, (3-(4-chlorophenyl)-1H-1,2,4-triazol-1-yl)(morpholino)methanone]", "In Vitro FAAH activity, 100 nM": "73.5 % of control"}
{"smiles": "CN(C(=O)n1cnc(-c2ccc(Cl)cc2)n1)c1ccc(F)cc1", "note": "[Compound 69, 3-(4-chlorophenyl)-N-(4-fluorophenyl)-N-methyl-1H-1,2,4-triazole-1-carboxamide]", "In Vitro FAAH activity, 100 nM": "80.8 % of control"}
{"smiles": "O=C(N1CCOCC1)n1nc(Cl)c2ccccc21", "note": "[Compound 72, (3-chloro-1H-indazol-1-yl)(morpholino)methanone]", "In Vitro FAAH activity, 100 nM": "87.6 % of control"}
{"smiles": "O=C(N1CCOCC1)n1cnc(-c2ccccc2)n1", "note": "[Compound 73, morpholino(3-phenyl-1H-1,2,4-triazol-1-yl)methanone]", "In Vitro FAAH activity, 100 nM": "85.8 % of control"}
{"smiles": "CN(C(=O)n1cnc(-c2ccccc2)n1)c1ccc(F)cc1F", "note": "[Compound 74, N-(2,4-difluorophenyl)-N-methyl-3-phenyl-1H-1,2,4-triazole-1-carboxamide]", "In Vitro FAAH activity, 100 nM": "73.2 % of control"}
{"smiles": "CN(C(=O)n1nnc2ccccc21)c1ccc(N2CCOCC2)cc1", "note": "[Compound 76, N-methyl-N-(4-morpholinophenyl)-1H-benzo[d][1,2,3]triazole-1-carboxamide]", "In Vitro FAAH activity, 100 nM": "97.1 % of control"}
{"smiles": "COc1cc(OC)cc(N(C)C(=O)n2nnc3ccccc32)c1", "note": "[Compound 77, N-(3,5-dimethoxyphenyl)-N-methyl-1H-benzo[d][1,2,3]triazole-1-carboxamide]", "In Vitro FAAH activity, 100 nM": "76.3 % of control"}
{"smiles": "O=C(N1CCOCC1)n1cnc(-c2ccc(F)cc2F)n1", "note": "[Compound 78, (3-(2,4-difluorophenyl)-1H-1,2,4-triazol-1-yl)(morpholino)methanone]", "In Vitro FAAH activity, 100 nM": "81.9 % of control"}
{"smiles": "CN(C(=O)n1cnc(-c2ccc(F)cc2F)n1)c1ccc(F)cc1F", "note": "[Compound 80, N,3-bis(2,4-difluorophenyl)-N-methyl-1H-1,2,4-triazole-1-carboxamide]", "In Vitro FAAH activity, 100 nM": "89.5 % of control"}
{"smiles": "CN(C)c1ccc(N(C)C(=O)n2nnc3ccccc32)cc1", "note": "[Compound 81, N-(4-(dimethylamino)phenyl)-N-methyl-1H-benzo[d][1,2,3]triazole-1-carboxamide]", "In Vitro FAAH activity, 100 nM": "49.2 % of control"}
{"smiles": "Cl.O=C(N1CCC(N2CCCCC2)CC1)n1nnc2ccccc21", "note": "[Compound 82, 1,4′-bipiperidin-1′-yl(1H-benzo[d][1,2,3]triazol-1-yl)methanone hydrochloride]", "In Vitro FAAH activity, 100 nM": "69.3 % of control"}
{"smiles": "CN1CCN(C(=O)n2nnc3ccccc32)CC1.Cl", "note": "[Compound 83, (1H-benzo[d][1,2,3]triazol-1-yl)(4-methylpiperazin-1-yl)methanone hydrochloride]", "In Vitro FAAH activity, 100 nM": "2.5 % of control"}
{"smiles": "CN(C(=O)n1nnc2ccccc21)c1ccccn1", "note": "[Compound 84, N-methyl-N-(pyridin-2-yl)-1H-benzo[d][1,2,3]triazole-1-carboxamide]", "In Vitro FAAH activity, 100 nM": "62.5 % of control"}
{"smiles": "CCCCCCCCCCCCNC(=O)n1nnc2ccccc21", "note": "[Compound 86, N-dodecyl-1H-benzo[d][1,2,3]triazole-1-carboxamide]", "In Vitro FAAH activity, 100 nM": "0 % of control"}
{"smiles": "O=C(Nc1ccc(-c2ccccc2)cc1)n1nnc2ccccc21", "note": "[Compound 88, N-(biphenyl-4-yl)-1H-benzo[d][1,2,3]triazole-1-carboxamide]", "In Vitro FAAH activity, 100 nM": "105.4 % of control"}
{"smiles": "O=C(N1CCOCC1)n1cc(-c2ccccc2)nn1", "note": "[Compound 89, morpholino(4-phenyl-1H-1,2,3-triazol-1-yl)methanone]", "In Vitro FAAH activity, 100 nM": "4.5 % of control"}
{"smiles": "Cl.O=C(N1CCC(N2CCOCC2)CC1)n1nnc2ccccc21", "note": "[Compound 90, (1H-benzo[d][1,2,3]triazol-1-yl)(4-morpholinopiperidin-1-yl)methanone hydrochloride]", "In Vitro FAAH activity, 100 nM": "38.6 % of control"}
{"smiles": "O=C(N1CCN(c2ccc(OCc3ccccc3)cc2)CC1)n1nnc2ccccc21", "note": "[Compound 91, (1H-benzo[d][1,2,3]triazol-1-yl)(4-(4-(benzyloxy)phenyl)piperazin-1-yl)methanone]", "In Vitro FAAH activity, 100 nM": "0 % of control"}
{"smiles": "Cl.O=C(N1CCC(N2CCCC2)CC1)n1nnc2ccccc21", "note": "[Compound 92, (1H-benzo[d][1,2,3]triazol-1-yl)(4-(pyrrolidin-1-yl)piperidin-1-yl)methanone hydrochloride]", "In Vitro FAAH activity, 100 nM": "96 % of control"}
{"smiles": "Cl.O=C(N1CCN(Cc2ccccc2)CC1)n1nnc2ccccc21", "note": "[Compound 93, (1H-benzo[d][1,2,3]triazol-1-yl)(4-benzylpiperazin-1-yl)methanone hydrochloride]", "In Vitro FAAH activity, 100 nM": "0 % of control"}
